Consider 103 molecules from ChEMBL document CHEMBL3507680, “University of Dundee, Gates Library screen for HepG2 cell viability”.

The series in a line: Human HepG2 cell viability assay in 384 well format. Format: toxicity, cell-based. On the set-up: dose 125 nL, time 70.5 hour; concentration not given beside the values. The following applies: HepG2 cells, read-out: Inhibition.
Turning to `CN(C)CCN1CCC(NC2CSCCc3ccccc32)CC1` (stereo not drawn), the cytotoxicity at 70.5 h was -7.29%.
In the case of `OCCOc1ccc(NCc2cc(F)cc3cccnc23)cn1`, the cytotoxicity at 70.5 h was -9.9%.
Regarding `Cc1nc(N2CCC3(CCOC3)C2)c2cc[nH]c2n1` (stereo not drawn), the cytotoxicity at 70.5 h was found to be 27.9%.
Consider `CCNC(=O)NCc1ccnc(N(C)C)n1`, for which the cytotoxicity at 70.5 h was -5.28%.
On to `CCN(CC(F)(F)F)C(=O)C1CCCN(Cc2nc(C)c(C)o2)C1` (stereo not drawn), for which the cytotoxicity at 70.5 h is -1.99%.
Turning to `CCCNC(=O)CN1CCN(c2nc(CC)ns2)CC1`, the cytotoxicity at 70.5 h was -9.67%.
With `CNC(=O)CN1CCC(NC2CSCCc3ccccc32)CC1` (stereo not drawn), the cytotoxicity at 70.5 h is 0.136%.
Next, `OCCOc1ccc(NCc2cccc3[nH]ccc23)cn1`: -3.37%; `CCc1ccc(C2COCCN2C(=O)Nc2ccc(C(N)=O)c(Cl)c2)o1` (stereo not drawn): -2.09%; `O=C(COC1CCCC1)N1CCCN(c2ncccn2)CC1`: -2.52%.
`Cc1ccc(C)c(S(=O)(=O)NC(=O)COc2cccc(C#N)c2)c1`: the cytotoxicity at 70.5 h was -2.88%.
With `Cc1ccc(S(=O)(=O)NC(=O)COc2cccc(C#N)c2)c(C)c1` the figure was 14.4%; with `CN(CCC(=O)NC1CC1)Cc1ccc(Cl)s1`, -7.03%; with `O=c1[nH]c(CN2CCN(CC(F)(F)F)CC2)nc2ccccc12`, -13.3%.
In the case of `O=C(COC1CCCCC1)N1CCN(C(=O)Cc2ccccn2)CC1`, the cytotoxicity at 70.5 h was -6.92%.
Regarding `COc1cc(C2(C(=O)NCCn3ccnc3)CCCC2)ccc1C`, the cytotoxicity at 70.5 h is -6.48%.
With `CCc1noc(C(C)N2CCN(Cc3cnc(C)cn3)CC2)n1` (stereo not drawn) the figure was 16.3%.
As to `O=C(NCc1ccccc1CN1CCCCCC1)Nc1nncs1`, the cytotoxicity at 70.5 h was -5.79%.
On to `Cc1ncsc1CNc1ccn(Cc2ccccc2)n1`, for which the cytotoxicity at 70.5 h turned out to be 6.63%.
As for `CCOCCNC(=O)Cc1cccc(I)c1`, the cytotoxicity at 70.5 h was 0.854%.
Next, `CN(C)CCNC(=O)Cc1cccc(I)c1`: 18.8%.
Turning to `COc1cc(OC)cc(C2CCN(CC(=O)NCC(F)(F)F)C2)c1` (stereo not drawn), the cytotoxicity at 70.5 h is -3.94%.
For the molecule `NC(=O)CCCNC(=O)Cc1cccc(I)c1`, the cytotoxicity at 70.5 h is -1.69%.
For `COCc1cccc(C(=O)N2CCN(C3=NCC(C)(C)S3)CC2)c1`, the cytotoxicity at 70.5 h is -3.27%.
For `CC(=O)CC(C)(C)NC(=O)CCN(C)Cc1ccc(Cl)s1`, the cytotoxicity at 70.5 h was -9.29%.
On to `OCC1CCCCN1Cc1nc(Cc2ccccc2)no1` (stereo not drawn), for which the cytotoxicity at 70.5 h was -3.62%.
Next, `COCc1nccc(C2CCCN(Cc3ccccc3C#N)C2)n1` (stereo not drawn): -6.99%.
In the case of `CN(Cc1cccc(Cl)c1)Cc1nnsc1Cl`, the cytotoxicity at 70.5 h was -5.2%.
Consider `Cc1cc(CN2CCN(C(C)c3nc(C(C)C)no3)CC2)no1` (stereo not drawn), for which the cytotoxicity at 70.5 h was -7.52%.
With `CNC(=O)CN1CCC(c2cc(OC)cc(OC)c2)C1` (stereo not drawn), the cytotoxicity at 70.5 h was -7.18%.
`Cc1cccc(OC(C)C(=O)NCC2(N(C)C)CCCC2)c1` (stereo not drawn): the cytotoxicity at 70.5 h was -8.19%.
For the molecule `O=C(CN1CCN(c2ccccc2F)CC1)Nc1ccc(Cl)cn1`, the cytotoxicity at 70.5 h worked out at 11.6%.
On to `CN(Cc1ccc2c(c1)OCO2)C(=O)c1ccc(=O)n(C)c1`, for which the cytotoxicity at 70.5 h is -1.05%.
For `CS(=O)(=O)NCC1CCCN(c2ccc(C(F)(F)F)cn2)C1` (stereo not drawn), the cytotoxicity at 70.5 h is -7.49%.
As for `CN(Cc1ccc(Br)o1)C(=O)Nc1cccnc1`, the cytotoxicity at 70.5 h is -5.06%.
Next, `N#Cc1ccccc1N1CCCN(CC(=O)Nc2ccccc2Cl)CC1`: -6.48%; `Cn1ccnc1COc1ccc(NC(=O)CCC2CCCO2)cc1` (stereo not drawn): -5.92%; `COc1c(CNCc2cccc(CN3CCOCC3)c2)c(C)nn1C`: -10.7%.
Take `O=C(CN1CSCC1=O)NCC1CCN(c2ccccc2)C1` (stereo not drawn): the cytotoxicity at 70.5 h is -8.38%.
Next, `COc1cc(NC(=O)NC2CC2)ccc1N1CCOC1=O`: -8.49%; `O=C(NCCNC(=O)C1Cc2cc(F)ccc2O1)C1CCCCC1` (stereo not drawn): -9.82%.
With `COc1c(C(=O)NCC(C)Sc2ccccc2)c(C)nn1C` (stereo not drawn), the cytotoxicity at 70.5 h is -5.69%.
In the case of `Cc1csc(C2CCCCN2C(=O)Cn2cncn2)n1` (stereo not drawn), the cytotoxicity at 70.5 h is 20.9%.
Consider `N#Cc1nccnc1N1CCC(c2nc(C(F)(F)F)c[nH]2)CC1`, for which the cytotoxicity at 70.5 h is -9.24%.
Take `N#Cc1cccnc1N1CCC(c2nc(C(F)(F)F)c[nH]2)CC1`: the cytotoxicity at 70.5 h was -15.7%.
As to `N#Cc1ccc(N2CCC(c3nc(C(F)(F)F)c[nH]3)CC2)nc1`, the cytotoxicity at 70.5 h is -11.5%.
For `FC(F)(F)c1c[nH]c(C2CCN(c3ncccn3)CC2)n1`, the cytotoxicity at 70.5 h was -15.4%.
With `Cn1cc(Br)cc(NC(=O)CC(C)(C)C)c1=O` the figure was -13.2%.
`CCC(=O)Nc1cc(Br)cn(C)c1=O`: the cytotoxicity at 70.5 h stood at 23.5%.
With `CC(C)(C)OC(=O)N1CCC[C@H](NCc2cc[nH]c2)C1` the figure was -11%; with `CCc1nc(C(=O)N2CCN(CCc3ccc(OC)cc3)CC2)c[nH]1`, -12.3%; with `Brc1csc(CNCc2nnc3n2CCC3)c1`, -12.4%.
For the molecule `CC(C)SCc1cccc(NC2CCN(C)C2=O)c1` (stereo not drawn), the cytotoxicity at 70.5 h is -15.1%.
Turning to `O=C(Nc1cn[nH]c1)N(CCO)C1CCc2ccccc21` (stereo not drawn), the cytotoxicity at 70.5 h was -13.9%.
Take `CC(C)(C)OC(=O)N1CCC[C@H](NCC2=CCCOC2)C1`: the cytotoxicity at 70.5 h was -9.87%.
On to `CCc1nnc2n1CC(CNCc1nc(C)c(C)o1)CC2` (stereo not drawn), for which the cytotoxicity at 70.5 h was -2.88%.
Turning to `Cc1ccc(O)c(CNCC(C)c2nc3ccccc3o2)n1` (stereo not drawn), the cytotoxicity at 70.5 h was -4.08%.
Next, `Cc1ccc(S(=O)(=O)N(CC(N)=O)CC(C)C)cc1C`: -5.56%; `Brc1ccc(-c2nnc(CN(Cc3cccs3)CC3CCCO3)o2)s1` (stereo not drawn): -14.5%; `CN(Cc1ccc(N(C)C)cc1)C(=O)CSc1ccc(Br)cc1`: -9.49%.
For the molecule `Cc1nnc(NCCC(=O)NCc2ccccc2)c(C#N)c1C`, the cytotoxicity at 70.5 h is -9.42%.
In the case of `Cc1nnc(NCCC(=O)N(C)Cc2ccccc2)c(C#N)c1C`, the cytotoxicity at 70.5 h worked out at 3.39%.
For the molecule `CCOc1ncccc1NC(=O)Nc1c(C)nn(C(C)C)c1C`, the cytotoxicity at 70.5 h was -4.11%.
On to `Cc1cc(C)c(CNC(=O)NCC2Cc3ccccc3O2)c(=O)[nH]1` (stereo not drawn), for which the cytotoxicity at 70.5 h is -6.51%.
`O=C(c1cc(F)cc2[nH]cnc12)N1CCCC1Cn1cccn1` (stereo not drawn): the cytotoxicity at 70.5 h was -8.91%.
Consider `Cc1nnc(C(NS(=O)(=O)c2cc(C#N)ccc2C)C(C)C)[nH]1` (stereo not drawn), for which the cytotoxicity at 70.5 h was -5.93%.
With `CCn1nc2c(cc1=O)CN(c1ncnc3ccsc13)CC2` the figure was -7.93%.
Regarding `CC(C)n1nc2c(cc1=O)CN(c1ncnc3ccsc13)CC2`, the cytotoxicity at 70.5 h turned out to be 13.9%.
Regarding `CC(C)n1nc2c(cc1=O)CN(c1ncnc3ccccc13)CC2`, the cytotoxicity at 70.5 h is -1.82%.
In the case of `Cc1nnc(C(NS(=O)(=O)c2cc(F)c(C)cc2F)C(C)C)[nH]1` (stereo not drawn), the cytotoxicity at 70.5 h is -5.12%.
Take `Cn1cnnc1-c1ccnc(NCc2ccc3c(c2)OCCO3)c1`: the cytotoxicity at 70.5 h is -3.05%.
Consider `OC1CCN(c2ccnc3c(F)cc(Br)cc23)CC1`, for which the cytotoxicity at 70.5 h was 16.9%.
Take `Cc1cc(S(=O)(=O)NC(=O)CCc2cncc(F)c2)c(C)s1`: the cytotoxicity at 70.5 h was -1.54%.
With `Cc1cn2c(n1)C(CNCC1=Cc3ccccc3OC1)CCC2` (stereo not drawn), the cytotoxicity at 70.5 h turned out to be 10.6%.
Next, `CN(Cc1ccccc1)C(=O)CCNc1ncccc1C#N`: -4.83%.
Next, `FC(F)COc1ccccc1NCc1nnsc1Cl`: -10.5%; `O=C(c1c[nH]c2ncccc12)N1CCC(COc2ccccc2)CC1`: 10.4%.
Regarding `CN(C)C(CNC(=O)c1nc(N2CCCC2)ncc1Cl)c1ccco1` (stereo not drawn), the cytotoxicity at 70.5 h was -17.5%.
Take `COc1cc2c(cc1OC)S(=O)(=O)N(Cc1ccc(C)cc1)C2=O`: the cytotoxicity at 70.5 h was -14.5%.
As for `Cc1ccc(C(=O)O)cc1S(=O)(=O)N(CC(C)O)c1ccccc1` (stereo not drawn), the cytotoxicity at 70.5 h is -16.2%.
Turning to `CCN(c1ccccc1)S(=O)(=O)c1cc(C(=O)O)cc2c1CCC2`, the cytotoxicity at 70.5 h turned out to be 21.2%.
With `CC1CCN(CC2CCN(C(=O)c3c[nH]c4ncccc34)CC2)CC1` the figure was -19.4%.
As for `CCN(c1cccc(F)c1)S(=O)(=O)c1cc(C(=O)O)cc2c1CCC2`, the cytotoxicity at 70.5 h is -9.22%.
Regarding `COc1cc(C(C)=O)ccc1SCC(=O)Nc1cccc(C)n1`, the cytotoxicity at 70.5 h is -19.2%.
For the molecule `CCN(C)c1ccc(CNC(=O)c2ccc(NC(N)=O)cc2)cc1F`, the cytotoxicity at 70.5 h was -17.6%.
With `CCc1nc(CNC2CCCCNC2=O)cs1` (stereo not drawn) the figure was -6.64%.
Consider `CCN(C(=O)NCCc1ccc(C)cc1C)C(C)CS(C)(=O)=O` (stereo not drawn), for which the cytotoxicity at 70.5 h is -12.9%.
`CCN(C(=O)NCCc1cccc(F)c1F)C(C)CS(C)(=O)=O` (stereo not drawn): the cytotoxicity at 70.5 h is -5.85%.
Regarding `CCN(C(=O)NCCc1ccccc1Cl)C(C)CS(C)(=O)=O` (stereo not drawn), the cytotoxicity at 70.5 h was found to be 20.5%.
Turning to `NC(=O)c1ccc(OCC(=O)NC2CCc3c(F)cccc32)cc1` (stereo not drawn), the cytotoxicity at 70.5 h is -5.14%.
`O=C(O)c1cc2c(c(S(=O)(=O)N(CCCO)c3ccccc3)c1)CCC2`: the cytotoxicity at 70.5 h was -10.1%.
For the molecule `COC(C)(C)CNC(=O)N(C)Cc1nc(-c2ccccc2)c[nH]1`, the cytotoxicity at 70.5 h was 24.9%.
Regarding `CN(Cc1nc(-c2ccccc2)c[nH]1)C(=O)NCC(=O)NC(C)(C)C`, the cytotoxicity at 70.5 h is -5.84%.
As to `O=C(NCCCc1cccs1)N1CCCCC1CCO` (stereo not drawn), the cytotoxicity at 70.5 h was -1.44%.
Next, `CCOCC1CCN(C(=O)Nc2ccc3c(c2)CCCN3C)C1` (stereo not drawn): -10.4%.
For `OCC(O)CSCc1nnc(-c2ccc(Cl)cc2)o1` (stereo not drawn), the cytotoxicity at 70.5 h was -13.7%.
Take `COc1cc(F)ccc1N1CCN(Cc2nnc(C3CC3)o2)CC1`: the cytotoxicity at 70.5 h is -14.9%.
On to `CC(C)CNC(=O)Cn1cc(C(N)=O)c(-c2ccccc2)n1`, for which the cytotoxicity at 70.5 h is -8.01%.
For the molecule `CCC(CC)NC(=O)Cn1cc(C(N)=O)c(-c2ccccc2)n1`, the cytotoxicity at 70.5 h is 17.3%.
For `CC(Cc1ccco1)NC(=O)CCn1cccn1` (stereo not drawn), the cytotoxicity at 70.5 h is -14.7%.
Next, `CC(C)c1nn(C)c(N(C)C)c1CNCc1cscn1`: -5.21%; `Cc1nn(C)c(N(C)C)c1CNCc1nnc2n1CCCCC2`: -6.41%.
As for `Brc1ccc(CNCc2nnc3n2CCC3)s1`, the cytotoxicity at 70.5 h turned out to be 14.8%.
